Results from US20120122860A1, “SOLID FORMS OF SULFONAMIDES AND AMINO ACIDS” (Plexxikon, Inc., priority 2009, published 2012).

Key:
Src = Src (Homo sapiens, UniProt P12931); experiment: Kinase activity assay, Src
MAP4K4 = MAP4K4 (Homo sapiens, UniProt O95819); experiment: Kinase activity assay, MAP4K4
Kit = Kit (Homo sapiens, UniProt P10721); experiment: Kinase activity assay, Kit
TEC = target: T1, TEC (Homo sapiens, UniProt P42680); experiment: Kinase activity assay, TEC
T1 sequence (P42680 1-631): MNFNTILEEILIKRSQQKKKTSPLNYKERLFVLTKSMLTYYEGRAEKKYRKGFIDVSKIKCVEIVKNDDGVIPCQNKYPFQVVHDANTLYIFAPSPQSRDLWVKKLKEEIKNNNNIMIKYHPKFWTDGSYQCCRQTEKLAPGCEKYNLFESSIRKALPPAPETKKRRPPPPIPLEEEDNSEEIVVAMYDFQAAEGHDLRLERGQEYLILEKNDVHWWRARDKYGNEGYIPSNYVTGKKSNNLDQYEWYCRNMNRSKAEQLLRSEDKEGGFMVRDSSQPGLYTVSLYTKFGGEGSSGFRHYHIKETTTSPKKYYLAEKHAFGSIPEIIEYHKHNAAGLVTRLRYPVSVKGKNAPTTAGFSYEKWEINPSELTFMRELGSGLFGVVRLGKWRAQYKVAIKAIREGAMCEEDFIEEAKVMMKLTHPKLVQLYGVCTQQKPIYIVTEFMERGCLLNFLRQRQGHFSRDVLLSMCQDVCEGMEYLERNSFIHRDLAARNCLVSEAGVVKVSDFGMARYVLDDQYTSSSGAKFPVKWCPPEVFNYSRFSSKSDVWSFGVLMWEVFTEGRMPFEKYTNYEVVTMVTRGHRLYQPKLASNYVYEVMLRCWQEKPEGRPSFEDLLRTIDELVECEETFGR

Kdr = Kdr (Homo sapiens, UniProt P35968); experiment: Kinase activity assay, Kdr
B-Raf = B-Raf (Homo sapiens, UniProt P15056); experiment: Kinase activity assay, B-Raf; format: biochemical; conditions: read-out: activity toward kinase B-Raf, IC50
B-Raf V600E = B-Raf V600E (Homo sapiens, UniProt P15056, V600E); experiment: Kinase activity assay, B-Raf V600E; format: biochemical; conditions: read-out: activity toward kinase B-Raf V600E, IC50
C-Raf = C-Raf (Homo sapiens, UniProt P04049); experiment: Kinase activity assay, C-Raf

Measured: IC50

Chain of Kdr (P35968 20-1356): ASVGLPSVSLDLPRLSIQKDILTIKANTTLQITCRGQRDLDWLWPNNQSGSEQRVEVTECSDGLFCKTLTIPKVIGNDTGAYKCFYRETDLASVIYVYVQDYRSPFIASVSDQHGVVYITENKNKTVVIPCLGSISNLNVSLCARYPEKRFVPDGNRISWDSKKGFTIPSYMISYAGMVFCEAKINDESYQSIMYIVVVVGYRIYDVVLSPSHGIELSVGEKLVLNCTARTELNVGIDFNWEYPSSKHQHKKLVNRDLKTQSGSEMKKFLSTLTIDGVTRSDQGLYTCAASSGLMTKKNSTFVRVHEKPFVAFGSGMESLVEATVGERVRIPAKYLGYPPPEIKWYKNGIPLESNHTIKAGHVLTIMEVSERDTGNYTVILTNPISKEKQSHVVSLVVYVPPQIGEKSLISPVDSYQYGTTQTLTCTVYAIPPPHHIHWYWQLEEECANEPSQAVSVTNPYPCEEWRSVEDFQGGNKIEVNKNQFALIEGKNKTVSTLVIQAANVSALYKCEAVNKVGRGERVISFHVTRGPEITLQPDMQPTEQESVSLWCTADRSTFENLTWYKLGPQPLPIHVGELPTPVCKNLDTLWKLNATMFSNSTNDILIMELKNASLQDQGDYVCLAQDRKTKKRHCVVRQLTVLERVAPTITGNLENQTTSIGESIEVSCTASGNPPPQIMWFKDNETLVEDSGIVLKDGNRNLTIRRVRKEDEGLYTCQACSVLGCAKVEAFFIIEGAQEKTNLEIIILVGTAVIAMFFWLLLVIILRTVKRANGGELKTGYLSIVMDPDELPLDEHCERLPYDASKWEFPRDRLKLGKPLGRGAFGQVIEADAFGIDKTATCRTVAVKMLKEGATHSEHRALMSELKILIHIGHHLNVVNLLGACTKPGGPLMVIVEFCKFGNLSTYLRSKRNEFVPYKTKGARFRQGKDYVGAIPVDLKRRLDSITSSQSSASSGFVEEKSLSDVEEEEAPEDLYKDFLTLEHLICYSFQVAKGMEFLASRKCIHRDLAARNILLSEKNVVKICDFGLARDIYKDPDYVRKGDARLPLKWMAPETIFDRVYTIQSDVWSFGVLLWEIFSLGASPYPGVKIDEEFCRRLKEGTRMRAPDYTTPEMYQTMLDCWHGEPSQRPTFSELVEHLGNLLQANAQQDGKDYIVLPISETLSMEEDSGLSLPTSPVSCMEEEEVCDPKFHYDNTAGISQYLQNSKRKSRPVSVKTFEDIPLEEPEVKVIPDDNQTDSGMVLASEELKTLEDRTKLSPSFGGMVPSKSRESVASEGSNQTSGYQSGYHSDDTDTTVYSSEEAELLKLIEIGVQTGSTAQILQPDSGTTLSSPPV
Chain of Kit (P10721 26-976): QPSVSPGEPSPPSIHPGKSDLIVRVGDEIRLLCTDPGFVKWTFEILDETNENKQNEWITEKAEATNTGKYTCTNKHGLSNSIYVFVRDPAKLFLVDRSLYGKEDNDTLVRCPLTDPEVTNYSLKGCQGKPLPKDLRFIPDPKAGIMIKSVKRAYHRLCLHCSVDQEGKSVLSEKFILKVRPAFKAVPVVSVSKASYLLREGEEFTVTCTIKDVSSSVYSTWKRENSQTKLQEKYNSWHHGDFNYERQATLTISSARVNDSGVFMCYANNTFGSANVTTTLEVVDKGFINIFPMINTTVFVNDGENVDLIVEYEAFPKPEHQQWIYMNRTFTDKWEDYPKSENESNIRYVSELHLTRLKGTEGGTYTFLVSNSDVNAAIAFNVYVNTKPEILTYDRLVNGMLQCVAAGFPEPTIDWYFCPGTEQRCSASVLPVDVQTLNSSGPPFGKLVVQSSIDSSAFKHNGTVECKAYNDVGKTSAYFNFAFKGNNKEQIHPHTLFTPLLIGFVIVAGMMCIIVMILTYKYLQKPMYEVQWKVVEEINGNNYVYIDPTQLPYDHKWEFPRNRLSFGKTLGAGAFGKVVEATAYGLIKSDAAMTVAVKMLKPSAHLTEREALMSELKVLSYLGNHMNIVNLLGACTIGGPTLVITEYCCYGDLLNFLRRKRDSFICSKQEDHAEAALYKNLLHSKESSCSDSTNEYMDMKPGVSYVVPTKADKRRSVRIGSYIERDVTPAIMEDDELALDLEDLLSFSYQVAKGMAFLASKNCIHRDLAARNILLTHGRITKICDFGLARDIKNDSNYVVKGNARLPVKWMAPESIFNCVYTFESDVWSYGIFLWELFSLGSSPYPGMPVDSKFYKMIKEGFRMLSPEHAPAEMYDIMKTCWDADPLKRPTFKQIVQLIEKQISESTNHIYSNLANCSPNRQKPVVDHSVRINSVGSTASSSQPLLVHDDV
Chain of B-Raf (P15056 whole entry): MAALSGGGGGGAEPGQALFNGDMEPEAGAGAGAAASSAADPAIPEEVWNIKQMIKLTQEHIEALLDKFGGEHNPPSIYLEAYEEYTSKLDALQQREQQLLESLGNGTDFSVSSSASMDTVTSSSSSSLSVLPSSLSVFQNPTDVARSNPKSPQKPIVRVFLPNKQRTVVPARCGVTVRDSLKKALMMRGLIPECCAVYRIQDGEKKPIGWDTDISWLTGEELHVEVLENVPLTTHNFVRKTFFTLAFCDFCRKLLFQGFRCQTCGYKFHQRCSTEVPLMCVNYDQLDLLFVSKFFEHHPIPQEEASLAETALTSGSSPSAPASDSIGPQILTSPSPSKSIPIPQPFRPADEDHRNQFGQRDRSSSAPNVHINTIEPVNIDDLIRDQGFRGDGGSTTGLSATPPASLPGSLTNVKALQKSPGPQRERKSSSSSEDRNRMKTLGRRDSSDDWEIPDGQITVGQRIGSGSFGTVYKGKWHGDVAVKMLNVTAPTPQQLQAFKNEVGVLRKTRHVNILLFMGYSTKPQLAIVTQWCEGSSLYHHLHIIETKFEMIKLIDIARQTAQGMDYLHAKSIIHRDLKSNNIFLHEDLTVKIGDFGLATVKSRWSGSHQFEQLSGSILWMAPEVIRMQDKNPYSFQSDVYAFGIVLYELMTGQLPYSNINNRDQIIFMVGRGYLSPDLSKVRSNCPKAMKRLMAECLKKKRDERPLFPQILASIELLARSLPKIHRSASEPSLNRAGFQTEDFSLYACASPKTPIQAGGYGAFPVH
Chain of B-Raf V600E (P15056 whole entry V600E): as the sequence (P15056 whole entry) above, with V600E counted along it
Chain of MAP4K4 (O95819 whole entry): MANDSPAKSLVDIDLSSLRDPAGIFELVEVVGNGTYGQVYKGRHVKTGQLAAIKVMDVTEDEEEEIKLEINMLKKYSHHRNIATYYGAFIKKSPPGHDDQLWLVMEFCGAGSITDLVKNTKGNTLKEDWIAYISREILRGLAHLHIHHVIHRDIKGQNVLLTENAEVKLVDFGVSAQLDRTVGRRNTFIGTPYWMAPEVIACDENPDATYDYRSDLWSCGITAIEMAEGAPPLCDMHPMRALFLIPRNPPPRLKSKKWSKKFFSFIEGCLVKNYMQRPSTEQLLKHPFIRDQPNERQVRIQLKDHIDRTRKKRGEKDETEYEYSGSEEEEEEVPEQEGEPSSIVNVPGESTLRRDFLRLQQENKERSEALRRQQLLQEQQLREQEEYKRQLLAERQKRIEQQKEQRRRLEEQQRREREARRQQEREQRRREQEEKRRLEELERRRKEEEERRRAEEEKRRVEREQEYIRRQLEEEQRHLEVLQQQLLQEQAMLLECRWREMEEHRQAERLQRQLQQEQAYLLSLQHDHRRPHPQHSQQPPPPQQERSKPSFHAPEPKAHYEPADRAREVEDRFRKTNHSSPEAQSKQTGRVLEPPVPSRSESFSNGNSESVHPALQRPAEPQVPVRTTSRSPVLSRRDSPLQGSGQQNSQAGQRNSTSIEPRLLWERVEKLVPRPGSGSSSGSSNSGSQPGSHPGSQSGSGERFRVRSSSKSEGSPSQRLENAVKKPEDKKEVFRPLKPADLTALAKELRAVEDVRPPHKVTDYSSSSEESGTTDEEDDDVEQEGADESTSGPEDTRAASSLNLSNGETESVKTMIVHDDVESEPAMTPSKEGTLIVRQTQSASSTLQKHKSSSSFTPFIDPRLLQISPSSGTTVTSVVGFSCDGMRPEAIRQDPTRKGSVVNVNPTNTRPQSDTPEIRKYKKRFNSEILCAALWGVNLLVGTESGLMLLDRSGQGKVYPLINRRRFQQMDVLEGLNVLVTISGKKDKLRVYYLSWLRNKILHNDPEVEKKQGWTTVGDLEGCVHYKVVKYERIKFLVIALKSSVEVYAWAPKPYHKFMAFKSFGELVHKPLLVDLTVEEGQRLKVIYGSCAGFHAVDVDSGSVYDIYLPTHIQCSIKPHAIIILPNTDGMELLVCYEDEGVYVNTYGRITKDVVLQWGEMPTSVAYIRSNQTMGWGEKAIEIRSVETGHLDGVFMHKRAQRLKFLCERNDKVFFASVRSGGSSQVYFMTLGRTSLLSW
Chain of Src (P12931 whole entry): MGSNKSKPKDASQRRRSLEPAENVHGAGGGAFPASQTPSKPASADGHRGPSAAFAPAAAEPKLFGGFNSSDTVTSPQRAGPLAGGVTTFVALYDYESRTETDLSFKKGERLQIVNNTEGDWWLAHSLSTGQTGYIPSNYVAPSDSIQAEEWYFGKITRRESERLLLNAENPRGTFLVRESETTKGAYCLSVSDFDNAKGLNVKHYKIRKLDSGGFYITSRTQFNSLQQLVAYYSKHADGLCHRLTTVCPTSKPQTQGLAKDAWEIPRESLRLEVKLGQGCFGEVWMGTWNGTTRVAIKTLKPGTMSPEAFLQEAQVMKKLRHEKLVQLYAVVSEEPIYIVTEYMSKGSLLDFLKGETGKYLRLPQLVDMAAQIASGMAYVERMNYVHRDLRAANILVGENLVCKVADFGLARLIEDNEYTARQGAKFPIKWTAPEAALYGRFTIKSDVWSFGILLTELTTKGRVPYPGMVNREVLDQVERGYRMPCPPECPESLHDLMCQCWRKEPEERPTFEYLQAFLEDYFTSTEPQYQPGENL

COc1ccnc2[nH]cc(C(=O)c3c(F)ccc(NS(=O)(=O)c4ccccc4F)c3F)c12 [P-2021, N-[2,4-Difluoro-3-(4-methoxy-1H-pyrrolo[2,3-b]pyridine-3-carbonyl)-phenyl]-2-fluoro-benzenesulfonamide]
≤ 10 µM: all assays above

COc1ccnc2[nH]cc(C(=O)c3c(F)ccc(NS(=O)(=O)c4cccc(F)c4)c3F)c12 [P-2023, N-[2,4-Difluoro-3-(4-methoxy-1H-pyrrolo[2,3-b]pyridine-3-carbonyl)-phenyl]-3-fluoro-benzenesulfonamide]
≤ 10 µM: all assays above

Cc1cnc2[nH]cc(C(=O)c3c(F)ccc(NS(=O)(=O)c4c(F)cccc4F)c3F)c2c1 [P-2024, N-[2,4-Difluoro-3-(5-methyl-1H-pyrrolo[2,3-b]pyridine-3-carbonyl)-phenyl]-2,6-difluoro-benzenesulfonamide]
≤ 10 µM: all assays above

N#Cc1cnc2[nH]cc(C(=O)c3c(F)ccc(NS(=O)(=O)c4c(F)cccc4F)c3F)c2c1 [P-2029, N-[3-(5-Cyano-1H-pyrrolo[2,3-b]pyridine-3-carbonyl)-2,4-difluoro-phenyl]-2,6-difluoro-benzenesulfonamide]
≤ 10 µM: all assays above

N#Cc1cnc2[nH]cc(C(=O)c3c(F)ccc(NS(=O)(=O)c4ccc(F)cc4F)c3F)c2c1 [P-2030, N-[3-(5-Cyano-1H-pyrrolo[2,3-b]pyridine-3-carbonyl)-2,4-difluoro-phenyl]-2,4-difluoro-benzenesulfonamide]
≤ 10 µM: all assays above

COc1ccnc2[nH]cc(C(=O)c3c(F)ccc(NS(=O)(=O)c4c(F)cccc4F)c3F)c12 [P-2031, N-[2,4-Difluoro-3-(4-methoxy-1H-pyrrolo[2,3-b]pyridine-3-carbonyl)-phenyl]-2,6-difluoro-benzenesulfonamide]
≤ 10 µM: all assays above

Cc1cnc2[nH]cc(C(=O)c3c(F)ccc(NS(=O)(=O)c4ccccn4)c3F)c2c1 [P-2070, Pyridine-2-sulfonic acid [2,4-difluoro-3-(5-methyl-1H-pyrrolo[2,3-b]pyridine-3-carbonyl)-phenyl]-amide]
not listed: Kit
≤ 10 µM: all other assays above

O=C(c1c(F)ccc(NS(=O)(=O)c2cccnc2)c1F)c1c[nH]c2ncc(Cl)cc12 [P-2071, Pyridine-3-sulfonic acid [3-(5-chloro-1H-pyrrolo[2,3-b]pyridine-3-carbonyl)-2,4-difluoro-phenyl]-amide]
≤ 10 µM: Src | MAP4K4 | Kit | TEC

CCCC(C)S(=O)(=O)Nc1ccc(F)c(C(=O)c2c[nH]c3ncc(OC)cc23)c1F (stereo not drawn) [P-2309, Pentane-2-sulfonic acid [2,4-difluoro-3-(5-methoxy-1H-pyrrolo[2,3-b]pyridine-3-carbonyl)-phenyl]-amide]
not listed: B-Raf | C-Raf
≤ 10 µM: all other assays above

CCC(C)S(=O)(=O)Nc1ccc(F)c(C(=O)c2c[nH]c3ncc(Cl)cc23)c1F (stereo not drawn) [P-2310, Butane-2-sulfonic acid [3-(5-chloro-1H-pyrrolo[2,3-b]pyridine-3-carbonyl)-2,4-difluoro-phenyl]-amide]
≤ 10 µM: all assays above

CCC(C)S(=O)(=O)Nc1ccc(F)c(C(=O)c2c[nH]c3ncc(C)cc23)c1F (stereo not drawn) [P-2312, Butane-2-sulfonic acid [2,4-difluoro-3-(5-methyl-1H-pyrrolo[2,3-b]pyridine-3-carbonyl)-phenyl]-amide]
not listed: Kit | B-Raf
≤ 10 µM: all other assays above

COc1cnc2[nH]cc(C(=O)c3c(F)ccc(NS(=O)(=O)C4CCCCC4)c3F)c2c1 [P-2355, Cyclohexanesulfonic acid [2,4-difluoro-3-(5-methoxy-1H-pyrrolo[2,3-b]pyridine-3-carbonyl)-phenyl]-amide]
≤ 10 µM: all assays above

COc1cnc2[nH]cc(C(=O)c3c(F)ccc(NS(=O)(=O)C4CCCC4)c3F)c2c1 [P-2356, Cyclopentanesulfonic acid [2,4-difluoro-3-(5-methoxy-1H-pyrrolo[2,3-b]pyridine-3-carbonyl)-phenyl]-amide]
≤ 10 µM: all assays above

O=C(c1c(F)ccc(NS(=O)(=O)C2CCCCC2)c1F)c1c[nH]c2ncc(Cl)cc12 [P-2357, Cyclohexanesulfonic acid [3-(5-chloro-1H-pyrrolo[2,3-b]pyridine-3-carbonyl)-2,4-difluoro-phenyl]-amide]
≤ 10 µM: all assays above

Cc1cnc2[nH]cc(C(=O)c3c(F)ccc(NS(=O)(=O)N(C)C)c3F)c2c1 [P-2382, N,N-dimethylamino-sulfonic acid [2,4-difluoro-3-(5-methyl-1H-pyrrolo[2,3-b]pyridine-3-carbonyl)-phenyl]-amide]
not listed: Kit
≤ 10 µM: all other assays above

CCCS(=O)(=O)Nc1cccc(S(=O)(=O)c2c[nH]c3ncc(Cl)cc23)c1 [P-2467, Propane-1-sulfonic acid [3-(5-chloro-1H-pyrrolo[2,3-b]pyridine-3-sulfonyl)-phenyl]-amide]
≤ 10 µM: MAP4K4 | TEC | B-Raf V600E | C-Raf
